From publication PMC9612005 (Pharmaceutics, 2022)

System: rod photoreceptors
Test: µERG a-wave of mouse retinal explants on MEA, scotopic (dark-adapted) stimulation
Type: cell-based
Conditions: for photoreceptor (rod) responses under low scotopic light: <−2.0 log; for photoreceptor (rod) responses under low scotopic light / reduction of a-wave amplitudes / decrease in the a-wave slope vs control: inhibitor 50 µM, activator 0.1 µM; for reduction of a-wave amplitudes: higher light intensities (≥−2.0 log); for a-wave amplitude / a-wave slope: inh 50 µM, act 0.1 µM, mean ±std
Protocol: Further animal experiments were performed using adult postnatal-day (P) 25–30 C57BL/6J mice (n = 12). Animals were housed under standard 12 h white cyclic lighting, had free access to food, water, and playgrounds, and were used irrespective of gender. Animal protocols compliant with §4 of the German law on animal protection were reviewed and approved by the Tübingen University committee on animal protection, and registered on 30 March 2022 under the No. AK05/22M. Moreover, experiments were performed in accordance with the ARVO statement for the use of animals in ophthalmic and visual research. All efforts were made to minimize the number of mice used and their suffering.
The mice were kept overnight in a ventilated light-tight box for dark-adaption. Subsequent procedures were performed under dim red light. The eyes of the mice were enucleated; then, the retina was isolated in extracellular solution containing (in mM): 125 NaCl, 26 NaHCO3, 2.5 KCl, 2 CaCl2, 1 MgCl2, 1.25 NaH2PO4, and 20 glucose, and was maintained at pH 7.4 using carboxygen perfusion (95/5% O2/CO2). All chemicals were obtained from Merck KGaA (Darmstadt, Germany). For MEA recording, the retinas were placed in the MEA-recording chamber (GC-side down). During the recordings, the tissue was perfused with carboxygenated medium at 32 °C. The chamber perfusion rate was adjusted to 2 mL/min.
Electrophysiological recordings were performed to assess the light dependent retinal responses (photoreceptors µERG and RGCs spikes) by means of a multi-electrode array system (MEA, USB-MEA60-Up-BC-System-E from Multi Channel Systems, Reutlingen, Germany) equipped with MEA 200/30iR-ITO-pr. The recordings were performed at a 25,000 Hz sampling-rate collecting unfiltered raw data. The trigger-synchronized operation of the light stimulation (LEDD1B T-Cube, Thorlabs) and MEA recording were controlled by the recording protocol set within the MCRack software (v 4.6.2, Multi Channel Systems, Reutlingen, Germany) and the digital I/O box (MCS). The light stimulation (white light LED, 2350 mW, MCWHD3, Thorlabs, Newton, NJ, USA) was applied from beneath the transparent glass MEA, guided by optic fiber and optics. A spectrometer USB4000-UV-VIS-ES (Ocean Optics, Orlando, FL, USA) was employed to calibrate the intensity of the applied light-stimulation protocol. To discriminate the rod and cone photoreceptor responses, a light-stimulation protocol for ex vivo MEA recordings was established following the standard in-vivo ERG protocol. For scotopic recordings (rod responses), the animals were dark-adapted (12 h), while for the photopic recordings (cone responses), the retinal explants were light-adapted on the MEA (5 min at intensity of 4.20 × 10^13 photons/cm^2/s), subsequent to scotopic stimulation. The parameters of the light stimuli were set as: light flash 250 ms long (3 repetition per light intensity, 20 s interval). Scotopic: 10 stimuli in 0.5 log steps from −4.5 to 0.0 (1.33 × 10^9–4.20 × 10^13 photons/cm^2/s). Photopic (background light: 4.20 × 10^13 photons/cm^2/s): four stimuli in 0.5 log steps from +0.5 to +2.0 (1.33 × 10^14–4.20 × 10^15 photons/cm^2/s).
MEA-recorded raw data files were filtered employing a Butterworth 2nd order filter (MC-Rack, Multi-channel systems) to extract the µERG (field potentials: bandpass 0.01–100 Hz) and spikes (high pass 200 Hz). The filtered data were converted to *.hdf files by MC DataManager (v1.6.1.0, Multi Channel Systems, Reutlingen, Germany) for further data processing in MATLAB [39]. Shown traces data are the average of 30 MEA recording electrodes, per condition. n = 5 retinae were recorded per condition. Statistical significance was estimated by one-way ANOVA followed by the Dunnett´s test for multiple comparisons. […]

[1] = scotopic, light intensity 0.0 log
[2] = scotopic, light intensity -0.5 log
[3] = scotopic, light intensity -1.0 log
[4] = scotopic, light intensity -1.5 log
[5] = scotopic, light intensity -2.0 log
[6] = scotopic, light intensity -2.5 log
[7] = scotopic, light intensity -3.0 log
[8] = scotopic, light intensity -3.5 log
[9] = scotopic, light intensity -4.0 log
[10] = scotopic, light intensity -4.5 log

SMILES | photoreceptor (rod) responses under low scotopic light | reduction of a-wave amplitudes (scotopic) | a-wave amplitude [1] [µV] | a-wave slope [1] [µV / 20 ms] | a-wave amplitude [2] [µV] | a-wave slope [2] [µV / 20 ms] | a-wave amplitude [3] [µV] | a-wave slope [3] [µV / 20 ms] | a-wave amplitude [4] [µV] | a-wave slope [4] [µV / 20 ms] | a-wave amplitude [5] [µV] | a-wave slope [5] [µV / 20 ms] | a-wave amplitude [6] [µV] | a-wave slope [6] [µV / 20 ms] | a-wave amplitude [7] [µV] | a-wave slope [7] [µV / 20 ms] | a-wave amplitude [8] [µV] | a-wave slope [8] [µV / 20 ms] | a-wave amplitude [9] [µV] | a-wave slope [9] [µV / 20 ms] | also measured
Nc1nc2c(nc(Sc3ccc(Cl)cc3)n2[C@@H]2O[C@@H]3COP(=O)(O)O[C@H]3[C@H]2O)c(=O)[nH]1 [8-pCPT-cGMP] | rod-responses were essentially absent | 60–80% | -27.81± 6.62 | -0.64± 0.21 | -24.30± 7.17 | -0.39± 0.16 | -18.28± 4.38 | -0.31± 0.09 | -14.14± 3.10 | -0.19± 0.17 | -11.59± 2.75 | -0.12± 0.22 | -3.02± 0.74 | -0.07± 0.01 | 0.04± 0.05 | 0.09± 0.15 | 0.00± 0.00 | -0.04± 0.08 | 0.00± 0.00 | 0.02± 0.01 | a-wave amplitude [10]: 0.00± 0.00 µV; a-wave slope [10]: 0.11± 0.10 µV / 20 ms; decrease in the a-wave slope vs control (scotopic): ~ 85%
O=c1c2nc(Br)n([C@@H]3O[C@@H]4CO[P@@](=O)(S)O[C@H]4[C@H]3O)c2nc2[nH]c(-c3ccccc3)cn12 [Rp-8-Br-PET-cGMPS] | essentially abolished photoreceptor responses | ~ 96% | -7.32± 1.37 | -0.15± 0.11 | -4.49± 1.49 | -0.07± 0.04 | -3.62± 1.17 | -0.07± 0.04 | -2.22± 1.40 | -0.03± 0.03 | -1.85± 0.71 | -0.04± 0.03 | 0.00± 0.00 | -0.05± 0.03 | 0.00± 0.00 | -0.04± 0.02 | 0.00± 0.00 | 0.02± 0.02 | 0.00± 0.00 | -0.02± 0.00 | light intensity at which rod a-wave response was detectable (scotopic): −2.0 log units; a-wave amplitude [10]: 0.00± 0.00 µV; a-wave slope [10]: -0.02± 0.03 µV / 20 ms; decrease in the a-wave slope vs control (scotopic): up to 90%
